Values quoted from earlier work as cited in US20050214389A1, “Beta-carotene enriched extract from water hyacinth eichhornia crassipes” (Council of Scientific and Industrial Research, priority 2004, published 2005).

System: polyamine oxidase
Settings: purified polyamine oxidase from leaves of water hyacinth
In the case of `NCCCCCCCCN` [Octamethylenediamine], the “inhibition of the enzyme” value is listed as “strong inhibitors”.
In the case of `O=C(O)c1cc[c]([Hg][Cl])cc1` [p-chloromercuribenzoate], the “inhibition of the enzyme” value is listed as “without effect”.
In the case of `CCN(CC)CCCC(C)Nc1c2ccc(Cl)cc2nc2ccc(OC)cc12` (stereo not shown) [quinacrine], the “inhibition of the enzyme” value is given as “strong inhibitors”.

Same assay, conditions: substrate of purified polyamine oxidase from leaves of water hyacinth
In the case of `NCCCCNCCCN` [spermidine], the Km is listed as 28 mM.
For `NCCCNCCCCNCCCN` [spermine], the Km is listed as 20 mM.

System: Enterobacter sp. F2
Settings: concentrations of from 10-7 to 10-2 mol/L
For `C[C@H](N)C(=O)O` [alanine], the “chemotaxis (attraction of F2)” value is given as “strongly attracted”.
For `N=C(N)NCCC[C@H](N)C(=O)O` [arginine], the “chemotaxis (attraction of F2)” value is listed as “not”.
For `NC(=O)C[C@H](N)C(=O)O` [asparagine], the “chemotaxis (attraction of F2)” value is listed as “not”.
In the case of `N[C@@H](CS)C(=O)O` [cysteine], the “chemotaxis (attraction of F2)” value is listed as “not”.
For `NCCCC(=O)O` [gamma amino butyric acid], the “chemotaxis (attraction of F2)” value is listed as “strongly attracted”.
For `N[C@@H](CCC(=O)O)C(=O)O` [glutamate], the “chemotaxis (attraction of F2)” value is listed as “some degrees”.
For `NC(=O)CC[C@H](N)C(=O)O` [glutamine], the “chemotaxis (attraction of F2)” value is given as “not”.
For `NCC(=O)O` [glycine], the “chemotaxis (attraction of F2)” value is given as “strongly attracted”.
In the case of `N[C@@H](Cc1c[nH]cn1)C(=O)O` [histidine], the “chemotaxis (attraction of F2)” value is given as “some degrees”.
In the case of `CC[C@H](C)[C@H](N)C(=O)O` [isoleucine], the “chemotaxis (attraction of F2)” value is listed as “not”.
For `CC(C)C[C@H](N)C(=O)O` [leucine], the “chemotaxis (attraction of F2)” value is listed as “strongly attracted”.
For `NCCCC[C@H](N)C(=O)O` [lysine], the “chemotaxis (attraction of F2)” value is given as “not”.
For `CSCC[C@H](N)C(=O)O` [methionine], the “chemotaxis (attraction of F2)” value is listed as “strongly attracted”.
For `N[C@@H](Cc1ccccc1)C(=O)O` [phenylalanine], the “chemotaxis (attraction of F2)” value is given as “not”.
In the case of `O=C(O)[C@@H]1CCCN1` [proline], the “chemotaxis (attraction of F2)” value is given as “not”.
In the case of `N[C@@H](CO)C(=O)O` [serine], the “chemotaxis (attraction of F2)” value is given as “strongly attracted”.
For `C[C@@H](O)[C@H](N)C(=O)O` [threonine], the “chemotaxis (attraction of F2)” value is given as “some degrees”.
For `N[C@@H](Cc1c[nH]c2ccccc12)C(=O)O` [tryptophan], the “chemotaxis (attraction of F2)” value is given as “not”.
For `N[C@@H](Cc1ccc(O)cc1)C(=O)O` [tyrosine], the “chemotaxis (attraction of F2)” value is listed as “not”.
In the case of `CC(C)[C@H](N)C(=O)O` [valine], the “chemotaxis (attraction of F2)” value is listed as “strongly attracted”.
